Data reported in publication PMC6422671 (British Journal of Clinical Pharmacology, 2019).

Assay: Vital signs; data mean (standard deviation)
Assay type: in vivo, healthy men
Excerpt: Data are mean (standard deviation)

For `C[C@@H](N)c1cc(Cl)ccc1Cn1c(=S)[nH]c(=O)c2[nH]ccc21` [AZD4831], the DBP (45 mg fed, 0.5 h) was 66 (16) mmHg, the Pulse (45 mg fed, 0.5 h) was 63 (6) bpm and the SBP (45 mg fed, 0.5 h) was 121 (15) mmHg. For the same molecule, the DBP (45 mg fed, 1 h) was 65 (11) mmHg, the Pulse (45 mg fed, 1 h) was 66 (11) bpm and the SBP (45 mg fed, 1 h) was 122 (16) mmHg. For the same molecule, the DBP (45 mg fed, 2 h) was 66 (18) mmHg, the Pulse (45 mg fed, 2 h) was 64 (9) bpm and the SBP (45 mg fed, 2 h) was 120 (12) mmHg. For the same molecule, the DBP (45 mg fed, 3 h) was 69 (11) mmHg, the Pulse (45 mg fed, 3 h) was 64 (9) bpm and the SBP (45 mg fed, 3 h) was 125 (13) mmHg. For the same molecule, the DBP (45 mg fed, 4 h) was 67 (15) mmHg, the Pulse (45 mg fed, 4 h) was 62 (10) bpm and the SBP (45 mg fed, 4 h) was 123 (17) mmHg. For the same molecule, the DBP (45 mg fed, 6 h) was 70 (15) mmHg, the Pulse (45 mg fed, 6 h) was 64 (8) bpm and the SBP (45 mg fed, 6 h) was 120 (7) mmHg. The DBP (45 mg fed, 8 h) was 71 (17) mmHg, the Pulse (45 mg fed, 8 h) was 59 (9) bpm and the SBP (45 mg fed, 8 h) was 121 (14) mmHg. The DBP (45 mg fed, 12 h) was 69 (15) mmHg, the Pulse (45 mg fed, 12 h) was 63 (10) bpm and the SBP (45 mg fed, 12 h) was 124 (8) mmHg. The DBP (45 mg fed, 24 h) was 69 (12) mmHg, the Pulse (45 mg fed, 24 h) was 57 (9) bpm and the SBP (45 mg fed, 24 h) was 114 (9) mmHg. The DBP (45 mg fed, 36 h) was 71 (15) mmHg, the Pulse (45 mg fed, 36 h) was 62 (9) bpm and the SBP (45 mg fed, 36 h) was 127 (9) mmHg. For the same molecule, the DBP (45 mg fed, 48 h) was 73 (13) mmHg, the Pulse (45 mg fed, 48 h) was 57 (4) bpm and the SBP (45 mg fed, 48 h) was 116 (7) mmHg. For the same molecule, the DBP (135 mg fasted, 0.5 h) was 69 (5) mmHg, the Pulse (135 mg fasted, 0.5 h) was 59 (6) bpm and the SBP (135 mg fasted, 0.5 h) was 113 (8) mmHg. The DBP (135 mg fasted, 1 h) was 70 (4) mmHg, the Pulse (135 mg fasted, 1 h) was 61 (9) bpm and the SBP (135 mg fasted, 1 h) was 110 (5) mmHg. For the same molecule, the DBP (135 mg fasted, 2 h) was 68 (6) mmHg, the Pulse (135 mg fasted, 2 h) was 59 (7) bpm and the SBP (135 mg fasted, 2 h) was 113 (10) mmHg. For the same molecule, the DBP (135 mg fasted, 3 h) was 68 (6) mmHg, the Pulse (135 mg fasted, 3 h) was 59 (6) bpm and the SBP (135 mg fasted, 3 h) was 113 (7) mmHg. The DBP (135 mg fasted, 4 h) was 69 (6) mmHg, the Pulse (135 mg fasted, 4 h) was 60 (7) bpm and the SBP (135 mg fasted, 4 h) was 116 (8) mmHg. The DBP (135 mg fasted, 6 h) was 66 (6) mmHg, the Pulse (135 mg fasted, 6 h) was 67 (8) bpm and the SBP (135 mg fasted, 6 h) was 113 (10) mmHg. For the same molecule, the DBP (135 mg fasted, 8 h) was 70 (6) mmHg, the Pulse (135 mg fasted, 8 h) was 62 (4) bpm and the SBP (135 mg fasted, 8 h) was 113 (8) mmHg. For the same molecule, the DBP (135 mg fasted, 12 h) was 69 (7) mmHg, the Pulse (135 mg fasted, 12 h) was 70 (5) bpm and the SBP (135 mg fasted, 12 h) was 119 (9) mmHg. For the same molecule, the DBP (135 mg fasted, 24 h) was 69 (3) mmHg, the Pulse (135 mg fasted, 24 h) was 65 (9) bpm and the SBP (135 mg fasted, 24 h) was 115 (7) mmHg. The DBP (135 mg fasted, 36 h) was 67 (6) mmHg, the Pulse (135 mg fasted, 36 h) was 73 (7) bpm and the SBP (135 mg fasted, 36 h) was 118 (12) mmHg. For the same molecule, the DBP (135 mg fasted, 48 h) was 71 (5) mmHg, the Pulse (135 mg fasted, 48 h) was 67 (9) bpm and the SBP (135 mg fasted, 48 h) was 114 (10) mmHg. For the same molecule, the DBP (405 mg fasted, 0.5 h) was 70 (7) mmHg, the Pulse (405 mg fasted, 0.5 h) was 61 (8) bpm and the SBP (405 mg fasted, 0.5 h) was 116 (9) mmHg. The DBP (405 mg fasted, 1 h) was 69 (8) mmHg, the Pulse (405 mg fasted, 1 h) was 61 (8) bpm and the SBP (405 mg fasted, 1 h) was 114 (6) mmHg. For the same molecule, the DBP (405 mg fasted, 2 h) was 68 (6) mmHg, the Pulse (405 mg fasted, 2 h) was 58 (8) bpm and the SBP (405 mg fasted, 2 h) was 114 (9) mmHg. The DBP (405 mg fasted, 3 h) was 67 (5) mmHg, the Pulse (405 mg fasted, 3 h) was 57 (6) bpm and the SBP (405 mg fasted, 3 h) was 112 (6) mmHg. For the same molecule, the DBP (405 mg fasted, 4 h) was 69 (7) mmHg, the Pulse (405 mg fasted, 4 h) was 60 (8) bpm and the SBP (405 mg fasted, 4 h) was 115 (5) mmHg. For the same molecule, the DBP (405 mg fasted, 6 h) was 66 (5) mmHg, the Pulse (405 mg fasted, 6 h) was 63 (8) bpm and the SBP (405 mg fasted, 6 h) was 113 (4) mmHg. For the same molecule, the DBP (405 mg fasted, 8 h) was 67 (5) mmHg, the Pulse (405 mg fasted, 8 h) was 59 (7) bpm and the SBP (405 mg fasted, 8 h) was 113 (5) mmHg. For the same molecule, the DBP (405 mg fasted, 12 h) was 67 (4) mmHg, the Pulse (405 mg fasted, 12 h) was 63 (8) bpm and the SBP (405 mg fasted, 12 h) was 114 (8) mmHg. The DBP (405 mg fasted, 24 h) was 71 (2) mmHg, the Pulse (405 mg fasted, 24 h) was 60 (7) bpm and the SBP (405 mg fasted, 24 h) was 113 (4) mmHg. For the same molecule, the DBP (405 mg fasted, 36 h) was 68 (4) mmHg, the Pulse (405 mg fasted, 36 h) was 65 (5) bpm and the SBP (405 mg fasted, 36 h) was 118 (4) mmHg. For the same molecule, the DBP (405 mg fasted, 48 h) was 71 (7) mmHg, the Pulse (405 mg fasted, 48 h) was 65 (9) bpm and the SBP (405 mg fasted, 48 h) was 118 (4) mmHg. The “changes in vital signs or electrocardiography parameters” value (in vivo) was “no clinically significant changes”.
